Assay results from ChEMBL document CHEMBL3885861, “Open TG-GATES”.

Organism: Rattus norvegicus
Test: Open TG-GATES - Regimen: Daily Repeat
Assay type: toxicity, organism-based, Sprague-Dawley
Set-up: regimen Daily Repeat, gender Male, age 6 weeks
Conditions: in vivo, po, route gavage; for TBIL / TC / TG / TP / gamma-GTP / ALP / ALT / AST / BUN / CRE / Ca / Cl / DBIL / K / LDH / Na / PL / RALB / IP: tissue Plasma; for APTT / Bas / Eos / Fbg / Hb / Ht / Lym / MCH / MCHC / MCV / PT / Plat / RBC / Ret / WBC / Mono / Neu: tissue Blood; for LIVER: tissue Liver
[1] = 1 mg/kg, […], dose level Low, time 28 day
[2] = 3 mg/kg, 72 h, dose level Middle, time 3 day
[3] = 3 mg/kg, 72 h, tissue Kidney, dose level Middle, time 3 day
[4] = 3 mg/kg, […], dose level Middle, time 14 day
[5] = 3 mg/kg, […], dose level Middle, time 28 day
[6] = 3 mg/kg, […], tissue Kidney, dose level Middle, time 14 day
[7] = 3 mg/kg, […], tissue Kidney, dose level Middle, time 28 day
[8] = 10 mg/kg, 72 h, dose level High, time 3 day
[9] = 10 mg/kg, 72 h, tissue Kidney, dose level High, time 3 day
[10] = 10 mg/kg, […], dose level High, time 14 day
[11] = 10 mg/kg, […], dose level High, time 28 day
[12] = 10 mg/kg, […], tissue Kidney, dose level High, time 14 day
[13] = 10 mg/kg, […], tissue Kidney, dose level High, time 28 day

SMILES: C#C[C@]1(O)CC[C@H]2[C@@H]3CCc4cc(O)ccc4[C@H]3CC[C@@]21C [ETHINYL ESTRADIOL]
- TBIL [1]: 0.1 mg/dL
- TC [1]: 50.6 mg/dL
- TG [1]: 82 mg/dL
- TP [1]: 6.8 g/dL
- gamma-GTP [1]: 3.2 IU/L
- TERMINAL_BW [2]: 201.7 g
- APTT [2]: 22.6 s
- Bas [2]: 0%
- Eos [2]: 1%
- Fbg [2]: 302.4 mg/dL
- Hb [2]: 13.7 g/dL
- Ht [2]: 40.3%
- Lym [2]: 76.4%
- MCH [2]: 20.9 pg
- MCHC [2]: 34.1%
- MCV [2]: 61.5 fL
- PT [2]: 13.5 s
- Plat [2]: 106.8 x10_4/uL
- RBC [2]: 656.8 x10_4/ul
- Ret [2]: 4.4%
- WBC [2]: 75.4 x10_2/uL
- KIDNEY_L [3]: 0.9 g
- KIDNEY_R [3]: 1 g
- LIVER [2]: 12.6 g
- ALP [2]: 2898.2 IU/L
- ALT [2]: 40.8 IU/L
- AST [2]: 66.2 IU/L
- BUN [2]: 9.8 mg/dL
- CRE [2]: 0.2 mg/dL
- Ca [2]: 10.5 mg/dL
- Cl [2]: 108.2 meq/L
- DBIL [2]: 0.038 mg/dL
- K [2]: 4 meq/L
- LDH [2]: 77.8 IU/L
- Na [2]: 143.6 meq/L
- PL [2]: 74.8 mg/dL
- RALB [2]: 2.6 g/dL
- TBIL [2]: 0.07 mg/dL
- TC [2]: 24.8 mg/dL
- TG [2]: 55.6 mg/dL
- TP [2]: 5.6 g/dL
- TERMINAL_BW [4]: 223.6 g
- TERMINAL_BW [5]: 227.7 g
- APTT [4]: 19.5 s
- Bas [4]: 0%
- Eos [4]: 1%
- Fbg [4]: 316.6 mg/dL
- Ht [4]: 37.1%
- Lym [4]: 76.2%
- MCH [4]: 20.2 pg
- MCHC [4]: 36%
- MCV [4]: 56.2 fL
- Mono [4]: 2.2%
- Neu [4]: 20%
- PT [4]: 13.6 s
- Plat [4]: 149.1 x10_4/uL
- RBC [4]: 659.8 x10_4/ul
- Ret [4]: 2.4%
- WBC [4]: 96.9 x10_2/uL
- APTT [5]: 24.1 s
- Bas [5]: 0%
- Fbg [5]: 301 mg/dL
- Ht [5]: 37.2%
- Lym [5]: 77.6%
- MCH [5]: 18.7 pg
- MCHC [5]: 36.1%
- MCV [5]: 51.7 fL
- Mono [5]: 2.2%
- PT [5]: 14 s
- Plat [5]: 110.2 x10_4/uL
- RBC [5]: 719 x10_4/ul
- Ret [5]: 2%
- WBC [5]: 69.4 x10_2/uL
- KIDNEY_L [6]: 1 g
- KIDNEY_R [6]: 1 g
- KIDNEY_TOTAL [6]: 2 g
- KIDNEY_L [7]: 1 g
- KIDNEY_R [7]: 1 g
- LIVER [4]: 15.2 g
- LIVER [5]: 13.8 g
- ALP [4]: 2422.2 IU/L
- ALT [4]: 39.2 IU/L
- AST [4]: 55.4 IU/L
- BUN [4]: 16.4 mg/dL
- CRE [4]: 0.3 mg/dL
- Cl [4]: 105.4 meq/L
- DBIL [4]: 0.088 mg/dL
- IP [4]: 6.2 mg/dL
- LDH [4]: 88.2 IU/L
- Na [4]: 143.8 meq/L
- PL [4]: 126.8 mg/dL
- RALB [4]: 3 g/dL
- TBIL [4]: 0.2 mg/dL
- TC [4]: 40.6 mg/dL
- TG [4]: 76.4 mg/dL
- TP [4]: 6.8 g/dL
- gamma-GTP [4]: 4.4 IU/L
- ALP [5]: 1503.2 IU/L
- ALT [5]: 40.6 IU/L
- AST [5]: 50.6 IU/L
- BUN [5]: 14.8 mg/dL
- CRE [5]: 0.2 mg/dL
- Ca [5]: 10.8 mg/dL
- Cl [5]: 105.2 meq/L
- DBIL [5]: 0.062 mg/dL
- IP [5]: 4.9 mg/dL
- K [5]: 3.9 meq/L
- LDH [5]: 51.4 IU/L
- Na [5]: 143.6 meq/L
- PL [5]: 134 mg/dL
- RALB [5]: 3.1 g/dL
- TBIL [5]: 0.1 mg/dL
- TC [5]: 46.8 mg/dL
- TG [5]: 59.2 mg/dL
- TP [5]: 6.9 g/dL
- gamma-GTP [5]: 9.8 IU/L
- TERMINAL_BW [8]: 202.8 g
- APTT [8]: 17.7 s
- Bas [8]: 0.2%
- Eos [8]: 1%
- Fbg [8]: 289.4 mg/dL
- Hb [8]: 13.2 g/dL
- Ht [8]: 38.8%
- Lym [8]: 81.8%
- MCHC [8]: 34.2%
- MCV [8]: 62.2 fL
- Mono [8]: 4.8%
- Neu [8]: 12%
- Plat [8]: 114.3 x10_4/uL
- RBC [8]: 623.8 x10_4/ul
- Ret [8]: 4.8%
- WBC [8]: 91.7 x10_2/uL
- KIDNEY_L [9]: 1 g
- KIDNEY_R [9]: 1 g
- LIVER [8]: 13.9 g
- ALP [8]: 2718.6 IU/L
- ALT [8]: 40.8 IU/L
- AST [8]: 63 IU/L
- BUN [8]: 9.4 mg/dL
- CRE [8]: 0.2 mg/dL
- Ca [8]: 10.3 mg/dL
- Cl [8]: 107.8 meq/L
- DBIL [8]: 0.044 mg/dL
- IP [8]: 7.8 mg/dL
- K [8]: 4.3 meq/L
- LDH [8]: 76.8 IU/L
- PL [8]: 65.8 mg/dL
- RALB [8]: 2.5 g/dL
- TBIL [8]: 0.082 mg/dL
- TC [8]: 23.2 mg/dL
- TG [8]: 30.2 mg/dL
- TP [8]: 5.3 g/dL
- gamma-GTP [8]: 1 IU/L
- TERMINAL_BW [10]: 202.6 g
- TERMINAL_BW [11]: 211.1 g
- APTT [10]: 20.6 s
- Bas [10]: 0%
- Eos [10]: 1%
- Fbg [10]: 254 mg/dL
- Hb [10]: 13.9 g/dL
- Ht [10]: 39%
- Lym [10]: 78.2%
- MCH [10]: 20.6 pg
- MCHC [10]: 35.7%
- MCV [10]: 57.8 fL
- Mono [10]: 2.6%
- PT [10]: 14 s
- Plat [10]: 122.3 x10_4/uL
- RBC [10]: 675.2 x10_4/ul
- Ret [10]: 0.9%
- WBC [10]: 71.4 x10_2/uL
- APTT [11]: 24.9 s
- Bas [11]: 0%
- Eos [11]: 0.6%
- Fbg [11]: 258.6 mg/dL
- Hb [11]: 12.4 g/dL
- Ht [11]: 33.9%
- Lym [11]: 78.6%
- MCH [11]: 19 pg
- MCHC [11]: 36.6%
- MCV [11]: 51.7 fL
- Mono [11]: 2%
- Neu [11]: 18.2%
- Plat [11]: 120.4 x10_4/uL
- RBC [11]: 656.4 x10_4/ul
- Ret [11]: 1.9%
- WBC [11]: 61.3 x10_2/uL
- KIDNEY_L [12]: 1 g
- KIDNEY_R [12]: 1 g
- KIDNEY_L [13]: 1 g
- KIDNEY_R [13]: 1 g
- LIVER [10]: 14.2 g
- LIVER [11]: 15.1 g
- ALP [10]: 2093.8 IU/L
- AST [10]: 58.4 IU/L
- BUN [10]: 15.4 mg/dL
- CRE [10]: 0.2 mg/dL
- Cl [10]: 104.6 meq/L
- DBIL [10]: 0.074 mg/dL
- IP [10]: 6.4 mg/dL
- LDH [10]: 125.2 IU/L
- Na [10]: 144.8 meq/L
- PL [10]: 89.8 mg/dL
- RALB [10]: 3.1 g/dL
- TBIL [10]: 0.1 mg/dL
- TC [10]: 28.4 mg/dL
- TG [10]: 30.4 mg/dL
- TP [10]: 7 g/dL
- gamma-GTP [10]: 12.2 IU/L
- ALP [11]: 1817.4 IU/L
- ALT [11]: 61.6 IU/L
- BUN [11]: 16.4 mg/dL
- CRE [11]: 0.2 mg/dL
- Cl [11]: 104.6 meq/L
- DBIL [11]: 0.1 mg/dL
- IP [11]: 5.8 mg/dL
- LDH [11]: 94.4 IU/L
- Na [11]: 145 meq/L
- PL [11]: 118.6 mg/dL
- RALB [11]: 3.3 g/dL
- TBIL [11]: 0.3 mg/dL
- TC [11]: 40 mg/dL
- TG [11]: 60.2 mg/dL
- TP [11]: 7.3 g/dL
- gamma-GTP [11]: 19 IU/L
